In paper PMC5123632 (2016):

System: nasT'FRET (DNA, G4) GGGAGCGGGACGGGGGCCGGG
Assay: FRET melting
Settings: 100 mM Na+; 10 mM sodium cacodylate pH 7.4; 1 μM ligand (stated for ligand 1)

ΔTm: 30 °C
Compound: C[n+]1ccc(-c2c3nc(c(-c4cc[n+](C)cc4)c4ccc([nH]4)c(-c4cc[n+](C)cc4)c4nc(c(-c5cc[n+](C)cc5)c5ccc2[nH]5)C=C4)C=C3)cc1
